Measurements: publication PMC8557866, “Novel Small Molecule Growth Inhibitor Affecting Bacterial Outer Membrane Reduces Extraintestinal Pathogenic Escherichia coli (ExPEC) Infection in Avian Model” (Microbiology Spectrum, 2021)
≈ marks a conversion by molar mass, not a printed value.

Columns and labels:
APEC = experiment: microbe, parasite or virus in culture; assay type: cell-based, Escherichia coli; conditions: Escherichia coli
APEC O78 = system: APEC O78; set-up: method as in PMID 30333507; conditions: cited from earlier work
APEC serotype O78 = system: APEC serotype O78
Procedure: The efficacy of GIs was assessed using commercial broiler chickens (n = 6/group). […] GI compounds (ChemBridge, San Diego, CA) dissolved in dimethyl sulfoxide (DMSO) were administered orally using a syringe, twice a day, from day 4 (1 day before APEC infection) to day 8 (3 days postinfection [dpi]). The dose of each GI is described in Table S1. […] Chickens that were infected and vehicle-treated (positive control [PC]) and noninfected and nontreated (negative control [NC]) were included as controls. On day 5, chickens were infected subcutaneously (s.c.) with rifampin-resistant (Rif^r) APEC serotype O78 ([18]) (1 × 10^7 CFU/chicken). […] To prepare the APEC inoculum for infection, Rif^r APEC O78 (50 μg/ml rifampin) was grown to logarithmic phase in LB medium, washed twice with phosphate-buffered saline (PBS), and adjusted to an optical density at 600 nm (OD600) of 0.1 (5 × 10^7 CFU/ml). The clinical signs and mortality were recorded until 7 dpi. Chickens that died during this period were necropsied on the same day, lesions in internal organs (liver, heart, lung, and air sacs) were scored as described previously ([63], [71]), and the APEC loads were quantified in internal organs (liver, heart, lung, and kidney) by plating the tissue homogenates on MacConkey agar plates containing 50 μg/ml rifampin ([18]). At 7 dpi (day 12), all live birds were euthanized, lesions were scored, and the APEC loads in internal organs were quantified as described above. The body weight of chickens was measured before GI treatment (day 3) and at the day of necropsy (day 12).

CC(=O)OC(C(Br)C(=O)c1ccc([N+](=O)[O-])cc1)C(Cl)(Cl)Cl (centres unmarked) [GI-10]
MBC (APEC): 50 µM (≈ 21.7 µg/mL)
MIC (APEC): 25 µM (≈ 10.8 µg/mL)
MIC (APEC O78): 25 µM (≈ 10.8 µg/mL)
Mean APEC load, Heart (APEC serotype O78; efficacy trial, oral): 3.9 Log CFU/g tissues
Mean APEC load, Kidney (APEC serotype O78; efficacy trial, oral): 3.1 Log CFU/g tissues
Mean APEC load, Liver (APEC serotype O78; efficacy trial, oral): 3.9 Log CFU/g tissues
Mean APEC load, Lung (APEC serotype O78; efficacy trial, oral): 3.7 Log CFU/g tissues
Mean lesion score in Air sacs (APEC serotype O78; efficacy trial, oral): 1.7
Mean lesion score in Heart (APEC serotype O78; efficacy trial, oral): 2.2
Mean lesion score in Liver (APEC serotype O78; efficacy trial, oral): 1.3
Mean lesion score in Lung (APEC serotype O78; efficacy trial, oral): 1
Survival of chickens (APEC serotype O78; efficacy trial, oral, P ≤ 0.1, log rank test): prolonged the survival
Cumulative lesion score (APEC serotype O78; efficacy trial, oral, PC 6.2): 6.2
Mortality reduction compared to PC group (APEC serotype O78; efficacy trial, oral, PC mortality 58.3%): 41.7%
% reduction in severity, Air sacs lesions (APEC serotype O78; efficacy trial, oral, vs PC): −17.6%
% reduction in severity, Heart lesions (APEC serotype O78; efficacy trial, oral, vs PC): −4%
% reduction in severity, Liver lesions (APEC serotype O78; efficacy trial, oral, vs PC): 20%
% reduction in severity, Lung lesions (APEC serotype O78; efficacy trial, oral, vs PC): 0%
log reduction in APEC load, Heart (APEC serotype O78; efficacy trial, oral, vs PC): 1.0 Log CFU/g tissues
log reduction in APEC load, Kidney (APEC serotype O78; efficacy trial, oral, vs PC): 2.4 Log CFU/g tissues
log reduction in APEC load, Liver (APEC serotype O78; efficacy trial, oral, vs PC): 0.8 Log CFU/g tissues
log reduction in APEC load, Lung (APEC serotype O78; efficacy trial, oral, vs PC): 1.4 Log CFU/g tissues
BWG (body weight gain) (APEC serotype O78; in vivo): 220.8±38.9
